{
  "source": "patent US7521454B2",
  "about": "(Dainippon Sumitomo Pharma Co., Ltd., priority 2001, dated 2009)",
  "key": {"mouse spleen cell": {"system": "mouse spleen cell", "assay": "cells", "format": "cell-based", "details": "Mus musculus, 24 h, read-out: Interferon-inducing activity: Minimum effective concentration"}, "Balb/c male mouse": {"system": "Balb/c male mouse", "assay": "Interferon-inducing activity in mouse (in vivo), serum interferon titer after oral dosing", "details": "serum 2 h after dosing, Balb/c mouse"}, "[1]": {"system": "human peripheral blood mononuclear cells (PBMC)", "assay": "Interferon-inducing activity in human peripheral blood mononuclear cells (PBMC), IFN-α ELISA;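 also: IFN-α in pg/ml with a 1.25 pg/ml detection limit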", "format": "cell-based", "details": "24 h", "protocol": "Peripheral bloods were sampled from 5 healthy volunteers using a syringe containing heparin, and peripheral blood mononuclear cells (PBMC) were prepared by density gradient centrifugation utilizing the Lymphoprep™ (NYCOMED PHARMA AS). PBMCs were washed twice in serum-free RPMI 1640 medium and adjusted at 1×10^6 cells/ml in RPMI 1640 medium comprising 10% fetal bovine serum. The product was cultured in the presence of a test compound dissolved in dimethyl sulfoxide (final concentration: 0.1%) in an incubator in the presence of 5% CO^2 at 37° C. for 24 hours. As a control, 0.1% dimethyl sulfoxide containing no test compound was used. The culture supernatant was aseptically collected by filtration. Thereafter, the supernatant was cryopreserved at −20° C. or lower until it was subjected to the assay for IFN-inducing activity. Human IFN-α in the culture supernatant was quantified using a highly sensitive ELISA system (Amersham)."}, "IL-4 production": {"system": "IL-4 production", "assay": "Inhibitory activity against Th2 cytokine produced from sensitized spleen cells: IL-4", "format": "cell-based, mouse", "details": "Mus musculus, 72 h, OVA-sensitized BALB/c spleen cells, 3 days, read-out: Inhibitory activity against IL-4 production", "outline": "(§1)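 BALB/c mice immunized i.p. with 10 μg ovalbumin on alum, boosted at day 14; spleen cells taken 7 days later. Cells (5×10^6/well) restimulated with ovalbumin 0.5 mg/ml plus test compound, cultured 3 days at 37° C, 5% CO2. Supernatant cytokine quantified by ELISA.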"}, "IL-5 production": {"system": "IL-5 production", "assay": "Inhibitory activity against Th2 cytokine produced from sensitized spleen cells: IL-5", "format": "cell-based, mouse", "details": "Mus musculus, 72 h, OVA-sensitized BALB/c spleen cells, 3 days, read-out: Inhibitory activity against IL-5 production", "outline": "as §1"}, "[2]": {"assay": "Gastrointestinal absorption in rat (drug level in blood by HPLC)", "format": "in vivo", "details": "blood, dose 3 mg/kg oral, SD male rat", "protocol": "A test compound was suspended in an aqueous solution of 0.5% carboxymethylcellulose, and the resulting suspension was orally administered to an SD male rat. Blood was sampled with the elapse of time, and the level of the drug in blood was assayed by HPLC."}, "Renca cells": {"system": "Renca cells", "assay": "Antitumor effect in tumor-bearing mouse model (Renca)", "format": "in vivo", "details": "Renca in BALB/c mice, 5 times every 4 days", "protocol": "Murine renal adenocarcinoma-derived Renca cells (obtained from Iwate Medical University) were intradermally transplanted to the left ventral portions of 6-week-old BALB/c male mice (Charles River Japan, Inc.) at 5×10^4 cells/0.05 ml/mouse. Their body weights were measured on the next day, and they were divided into 5 groups (each group comprising 6 mice) in such a manner that the average body weights were substantially the same among groups. Vehicles (an aqueous solution of 0.5% carboxymethylcellulose (hereinafter referred to as “CMC-Na”)) and the compound of Example 27 (1 mg/kg and 3 mg/kg) were forcibly administered orally using an oral Sonde (10 ml/kg). Mouse interferon a (hereinafter referred to as “mIFN-α”) was intradermally administered to mice through their backs in amounts of 1×10^4 U/0.1 ml and 5×10^4 U/0.1 ml per mouse. Administration was carried out 5 times every 4 days. The longer diameter (L, mm) and the shorter diameter (W, mm) of the generated tumors were measured twice a week, and the tumor volumes (V, mm^3) were calculated (V=L×W^2). Also, significant difference was examined in accordance with Steel's multiple comparison. […]\nA surveillance period of about 30 days after the transplantation was provided, the tumor volume and the body weight were monitored, and an antitumor effect against the Renca cells was evaluated. […]"}, "OV2944-HM-1 cells": {"system": "OV2944-HM-1 cells", "assay": "Antitumor effect in mouse model of spontaneous metastasis (OV2944-HM-1)", "format": "in vivo", "details": "35 days after transplantation, Example 27 3 mg/kg oral, mIFN-α 5×10^4 U intradermal", "protocol": "OV2944-HM-1 cells (obtained from Hiroshima University) derived from mouse ovarian cancer that is highly metastatic to the lymph nodes were intradermally transplanted to the buttocks of 6-week-old B6C3F1 female mice (Charles River Japan, Inc.) in amounts of 1×10^6 cells/0.05 ml/mouse. Ten days after the transplantation, the primary tumor was excised under Nembutal anaesthesia. Adhesives (Aron Alpha) were applied to the excised portions, and the stumps were sewed up with wound clips. The next day, body weights were measured, and they were divided into 3 groups (each group comprising 6 mice) in such a manner that the average body weights among groups were substantially the same. Vehicles (aqueous solutions of 0.5% CMC-Na) and the compound of Example 27 (3 mg/kg) were forcibly administered orally using an oral Sonde (10 ml/kg). Also, 5×10^4 U/0.1 ml/mouse of mIFN-α was intradermally administered through their backs. Administration was carried out 5 times every 4 days. Regional lymph nodes (mouse cervical, brachium, axillary cavity) were extirpated 35 days after the transplantation, and their wet weights were measured. Simultaneously, lungs were extirpated to visually inspect the metastasis. Also, significant difference was examined in accordance with Steel's multiple comparison. The SAS system for Windows Release 8.01 (SAS Institute Inc., Cary, N.C., U.S.A.) was used for the examination.\nThus, pulmonary metastasis was examined."}, "male cynomolgus monkeys": {"system": "male cynomolgus monkeys", "assay": "Interferon-inducing activity in cynomolgus monkey (in vivo), serum interferon titer and vomition", "details": "cynomolgus monkey, in vivo"}},
  "data": [
    {"smiles": "CCCCNc1nc(N)c2nc(O)n(Cc3ccc(C)nc3)c2n1", "note": "[Example 27, 2-Butylamino-8-hydroxy-9-(6-methyl-3-pyridylmethyl)adenine]", "values": [
      {"measurement": "minimal effective concentration", "setting": "mouse spleen cell", "value": 0.003, "unit": "µM"},
      {"measurement": "Interferon-inducing activity", "setting": "Balb/c male mouse; dosage 0.03 mg/kg oral", "value": "14 ± 3", "unit": "U/ml"},
      {"measurement": "Interferon-inducing activity", "setting": "Balb/c male mouse; dosage 0.1 mg/kg oral", "value": "324 ± 66", "unit": "U/ml"},
      {"measurement": "Interferon-inducing activity", "setting": "Balb/c male mouse; dosage 0.3 mg/kg oral", "value": "804 ± 274", "unit": "U/ml"},
      {"measurement": "Interferon-inducing activity (human IFN-α in culture supernatant)", "setting": "[1]; concentration 1 nM", "value": "6 ± 3", "unit": "pg/mL"},
      {"measurement": "Interferon-inducing activity (human IFN-α in culture supernatant)", "setting": "[1]; concentration 3 nM", "value": "26 ± 22", "unit": "pg/mL"},
      {"measurement": "Interferon-inducing activity (human IFN-α in culture supernatant)", "setting": "[1]; concentration 10 nM", "value": "56 ± 37", "unit": "pg/mL"},
      {"measurement": "Interferon-inducing activity (human IFN-α in culture supernatant)", "setting": "[1]; concentration 30 nM", "value": "59 ± 33", "unit": "pg/mL"},
      {"measurement": "activity at 0.001 µM", "setting": "IL-4 production; concentration 1 nM", "value": 30, "unit": "%"},
      {"measurement": "activity at 0.01 µM", "setting": "IL-4 production; concentration 10 nM", "value": 1, "unit": "%"},
      {"measurement": "activity at 0.1 µM", "setting": "IL-4 production; concentration 100 nM", "value": "< 1", "unit": "%"},
      {"measurement": "activity at 0.001 µM", "setting": "IL-5 production; concentration 1 nM", "value": 68, "unit": "%"},
      {"measurement": "activity at 0.01 µM", "setting": "IL-5 production; concentration 10 nM", "value": 20, "unit": "%"},
      {"measurement": "activity at 0.1 µM", "setting": "IL-5 production; concentration 100 nM", "value": 12, "unit": "%"},
      {"measurement": "Cmax", "setting": "[2]; read-out: Cmax", "value": 565, "unit": "ng/mL"},
      {"measurement": "Tmax", "setting": "[2]; read-out: Tmax", "value": 30, "unit": "min"},
      {"measurement": "antitumor effect compared with mIFN-α", "setting": "Renca cells; 1 and 3 mg/kg oral", "value": "equivalent to or higher than that attained by the administration of mIFN-α"},
      {"measurement": "tumor volume compared with the vehicle group", "setting": "Renca cells; Example 27 1 and 3 mg/kg oral, mIFN-α 1×10^4 and 5×10^4 U intradermal, P<0.05", "value": "significantly smaller"},
      {"measurement": "pulmonary metastasis (visual inspection), in words", "setting": "OV2944-HM-1 cells", "value": "not observed at all"},
      {"measurement": "lymph node metastasis (wet weight of metastasis lymph nodes vs vehicle group)", "setting": "OV2944-HM-1 cells; B6C3F1 mice, 5 times every 4 days", "value": "smaller than those attained from the group to which vehicles were administered"},
      {"measurement": "The number of mice which exhibited pulmonary metastasis in 6 mice", "setting": "OV2944-HM-1 cells; visual inspection", "value": 0},
      {"measurement": "interferon titer in blood serum (average±SE)", "setting": "male cynomolgus monkeys", "value": "14,488±6365 U/ml"}
    ]}
  ]
}
